Assay results published in US5194645A, “Trans-Pt (IV) compounds” (Johnson Matthey Public Limited Company, priority 1991, dated 1993).

Columns and labels:
Adj/PC6/iproplatin res = test: In vivo Adj/PC6 iproplatin-resistant tumour test in mice; set-up: key to ED90: --: indicates 90% inhibition not achieved for doses up to LD50
Protocol: (§1) The animals were sacrificed when moribund. The compounds were administered parenterally (ip).

OVCAR-3 [1] = test: In vivo OVCAR-3 ovarian carcinoma xenograft; set-up: species or system mice; settings: delay in doubling of tumour volume vs control
Protocol: The "growth delay" was also measured which represents the delay in achieving a doubling of the tumour volume for the treated group compared to the control group.

Adj/PC6/tetraplatin res = test: In vivo Adj/PC6 tetraplatin-resistant tumour test in mice
Protocol: as §1

Adj/PC6/cisplatin res = test: In vivo Adj/PC6 cisplatin-resistant tumour test in mice; set-up: key to ED90: --: indicates 90% inhibition not achieved for doses up to LD50
Protocol: as §1

Adj/PC6 = test: In vivo Adj/PC6 tumour test in mice (LD50, ED90, therapeutic index)
Protocol: The Adj/PC6 testing was carried out as described by P M Goddard et al presented in Sixth NCI-EORTC Symposium on New Drugs in Cancer Therapy 1989, which is a development of the basic method described by T A Connors et al, Chem Biol Interact 5, 415(1972). The in vivo L1210 tests were conducted according to the NCI protocol, Cancer Chemotherapy Reports, Part 3, vol 2, (Sept 1972) except that the animals used were DBA/2 mice and that dosing was carried out on days 1, 5 and 9. The animals were sacrificed when moribund. The compounds were administered parenterally (ip).
In the Adj/PC6 testing, LD50 and ED90 values in mg/kg body weight were determined in the conventional manner. The therapeutic index (TI) was calculated as the ratio of LD50 to ED90, and the results are shown below.
Additional tests were carried out in vivo using the compound of Example 2, against sensitive Adj/PC6 tumour cell lines, and against tumour cell lines resistant to various platinum anti-tumour agents, and a TI (Therapeutic Index) calculated, as described above.

OVCAR-3 [2] = test: In vivo OVCAR-3 ovarian carcinoma xenograft; set-up: species or system mice; settings: tumour volume vs control
41M ® = test: In vitro cytotoxicity (SRB), 41M ®; type: cell-based, human; settings: 41M ® (cisplatin resistant), ovarian cancer, 48 to 96 hours
Protocol: (§2) Additional in vitro biological testing was conducted using cell lines derived from human carcinomas and maintained at the Institute of Cancer Research, Sutton, England (see C A Hills & colleagues, Br J Cancer 59, 527-34 (1989)). Monolayer cells were trypsinized and seeded in 96-well microtiter plates at a density of 1×10^4 cells/well in 200 μl of growth medium. Cells were incubated overnight and test compounds were added to triplicate wells at various concentrations for a total of 48 to 96 hours. For toxicity analysis after drug exposure, the cells were fixed with trichloroacetic acid and stained for cellular protein content by incubation for 30 minutes with 0.4% (wt/vol) sulforodamine B (SRB) dissolved in 1% acetic acid. The unbound dye was removed by 1% acetic acid washes, and the bound dye was extracted with 10 mM Tris buffer. The amount of dye in solution was quantified by absorbance at 564 nm.
(§3) In the Tables A and B below, all the cells are ovarian cancer cells with the exception of GCT27^R /GCT27 which are testicular. Table A gives IC50 values in μM; Table B gives Resistance Factors as a ratio of IC50 for a cell line bred to be resistant to cisplatin against IC50 for the nonresistant cell line.

PXN/94 = test: In vitro cytotoxicity (SRB), PXN/94; type: cell-based, human; settings: PXN/94, ovarian cancer, 48 to 96 hours
Protocol: as §2, §3

A2780 = test: In vitro cytotoxicity (SRB), A2780; type: cell-based, human; settings: A2780, ovarian cancer, 48 to 96 hours
Protocol: as §2, §3

SKOV-3 = test: In vitro cytotoxicity (SRB), SKOV-3; type: cell-based, human; settings: SKOV-3, ovarian cancer, 48 to 96 hours
Protocol: as §2, §3

CHI ®/CHI = test: Resistance factor CHI ®/CHI; type: cell-based, human; settings: ratio of IC50 resistant to nonresistant line, ovarian
Protocol: as §2, §3

A2780 ® = test: In vitro cytotoxicity (SRB), A2780 ®; type: cell-based, human; settings: A2780 ® (cisplatin resistant), ovarian cancer, 48 to 96 hours
Protocol: as §2, §3

HX62 = test: In vitro cytotoxicity (SRB), HX62; type: cell-based, human; settings: HX62, ovarian cancer, 48 to 96 hours
Protocol: as §2, §3

41M = test: In vitro cytotoxicity (SRB), 41M; type: cell-based, human; settings: ovarian cancer, 48 to 96 hours
Protocol: as §2, §3

41M ®/41M = test: Resistance factor 41M ®/41M; type: cell-based, human; settings: ratio of IC50 resistant to nonresistant line, ovarian
Protocol: as §2, §3

CHI = test: In vitro cytotoxicity (SRB), CHI; type: cell-based, human; settings: ovarian cancer, 48 to 96 hours
Protocol: as §2, §3

CHI ® = test: In vitro cytotoxicity (SRB), CHI ®; type: cell-based, human; settings: CHI ® (cisplatin resistant), ovarian cancer, 48 to 96 hours
Protocol: as §2, §3

A2780 ®/A2780 = test: Resistance factor A2780 ®/A2780; type: cell-based, human; settings: ratio of IC50 resistant to nonresistant line, ovarian
Protocol: as §2, §3

[3] = Adj/PC6, comparison with cis-isomer

Row | Compound | IC50 (41M ®) [µM] | IC50 (PXN/94) [µM] | IC50 (A2780) [µM] | IC50 (SKOV-3) [µM] | Resistance Factor CHI ®/CHI (CHI ®/CHI) | ED90 (Adj/PC6; Adj/PC6 testing, mice, ip) [mg/kg body weight] | LD50 (Adj/PC6; Adj/PC6 testing, mice, ip) [mg/kg body weight] | TI (therapeutic index, ratio of LD50 to ED90) (Adj/PC6; Adj/PC6 testing, mice, ip) | IC50 (A2780 ®) [µM] | IC50 (HX62) [µM] | IC50 (41M) [µM] | Resistance Factor 41M ®/41M (41M ®/41M) | IC50 (CHI) [µM] | IC50 (CHI ®) [µM] | other results
1 | ctc[PtCl2 (OH) NH3(c-C6 H11 NH2)] [Cis-isomer, reference compound] |  |  |  |  |  |  |  |  |  |  |  |  |  |  | ED90 (Adj/PC6/iproplatin res): --; LD50 (Adj/PC6/iproplatin res): 8.8 mg/kg; Growth Delay (OVCAR-3 [1]; 2 mg/kg): 4.3 days; Growth Delay (OVCAR-3 [1]; 4 mg/kg): 15.2 days; Growth Delay (OVCAR-3 [1]; 8 mg/kg): 5.5 days; ED90 (Adj/PC6/tetraplatin res): 12 mg/kg; LD50 (Adj/PC6/tetraplatin res): > 12.5 mg/kg; TI (Therapeutic Index) (Adj/PC6/tetraplatin res): > 1; ED90 (Adj/PC6/cisplatin res): --; LD50 (Adj/PC6/cisplatin res): 8.8 mg/kg; ED90 (Adj/PC6; [3]): 1.4 mg/kg; LD50 (Adj/PC6; [3]): 17.5 mg/kg; TI (Therapeutic Index) (Adj/PC6; [3]): 13; T/C (day 28) (OVCAR-3 [2]; 2 mg/kg): 0.636; T/C (day 28) (OVCAR-3 [2]; 4 mg/kg): 0.427; T/C (day 28) (OVCAR-3 [2]; 8 mg/kg): 0.599
2 | [NH2][Pt]([OH])([OH])([Cl])([Cl])[N]1CCOCC1 [EX 7, trans-[PtCl2 (OH)2 NH3 (morpholine)]] | 54 | 50 | 10.9 | 47 | 1.6 | 94 | 82 | < 1 | 47 | 100 | 26 | 2.1 | 17.3 | 28.3 | 
3 | CC[N](CC)[Pt]([NH2])([OH])([OH])([Cl])[Cl] [EX 10, t-[PtCl2 (OH)2 NH3 (Et2 NH)]] | 0.8 |  | 1.9 | 12.1 |  |  |  |  | 11.6 | 3.2 | 1.8 |  | 3.3 | 4.6 | 
4 | C[NH][Pt]([NH2])([OH])([OH])([Cl])[Cl] [EX 6, trans-[PtCl2 (OH)2 NH3 (MeNH2)]] | 33 |  | 6.2 | 72 | 2.4 |  |  |  | 64 | 110 | 5.4 | 6.1 | 12.5 | 30.5 | Resistance Factor A2780 ®/A2780 (A2780 ®/A2780): 10.3
5 | t-[PtCl2 (OH)2 NH3 (exo-2-aminonorbornane)] | 1.47 | 3.2 |  | 4.4 | 1.2 | < 6.25 | 15.5 | > 2.5 |  | 5.6 | 1.4 | 1.0 | 1.4 | 1.7 | 
6 | CC(C)[NH][Pt]([NH2])([OH])([OH])([Cl])[Cl] [EX 3, trans-[PtCl2 (OH)2 (NH3)((CH3)2 CHNH2)]] | 4.6 | 8.3 |  | 9.2 | 2.3 | 10.5 | 18 | 1.7 |  | 14 | 3.2 | 1.4 | 2.4 | 5.5 | 
7 | CC(C)(C)[NH][Pt]([NH2])([OH])([OH])([Cl])[Cl] [EX 4, trans-[PtCl2 (OH)2 NH3 (t-C4 H9 NH2)]] | 0.9 | 3 |  | 4.7 | 2.2 | 4.7 | 35 | 7.4 |  | 1.8 | 1.1 | 0.8 | 0.74 | 1.6 | 
8 | C1CN2CCC1CC2.[NH2][Pt]([OH])([OH])([Cl])[Cl] [EX 11, t-[PtCl2 (OH)2 NH3 (quinuclidine)]] | 9.5 |  | 3.2 | 27 |  |  |  |  | 16 | 40 | 14.4 |  | 10.2 | 14.3 | 
9 | trans-[PtCl2 (OH)2 NH3 (C10 H21 NH2)] [EX 8] | 5.3 |  | 2.9 | 25 |  |  |  |  | 14.1 | 23 | 12 |  | 14 | 14.6 | 
